Tested on: HCT116
Test: efficacy (fitted maximal change in viability relative to DMSO control); higher = less cytotoxic (negative = loss of viability)
Details: 48 h
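Note: Luminescence-based viability readout, five doses per compound, normalized against on-plate DMSO and empty-well controls, followed by dose-response curve fitting for every drug.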

First: c1ccc(-c2nn3c(c2-c2ccnc4cc(OCCN5CCOCC5)ccc24)CCC3)nc1
Second: Cc1nn(C)c(COc2ccc(N3CCN([S+](=O)([O-])N(C)C)CC3)cc2)c1-c1cccc2c(CCCOc3cccc4ccccc34)c(C(=O)O)n(CCN3CCOCC3)c12
The efficacy of the first is lower: -41.1% for the first, -17.2% for the second.

Compared with CC(=O)O/N=C1\C(=O)N(Cc2cc(Cl)ccc2Cl)c2ccc(Cl)cc21, COC1=CC=C(Cl)C=C1\C2=C\C(=O)NC(=S)N2CC(N)=O is higher in efficacy: -71.8% for the first, -13.9% for the second.

First: CC(C)(N[S+](=O)([O-])c1ccc2c(Cl)cnc(NC(=N)N)c2c1)C(=O)O
Second: CCN(CC)C(=O)Cc1csc(N[S+](=O)([O-])c2cccc(Cl)c2C)n1
The efficacy of the first is higher: -7.17% for the first, -27.3% for the second.

Compared with CC(C)(O)CCc1ccc(OCc2cc(-c3cccc(OC(F)F)c3)c3ncccc3c2)cc1, CCOC1=CC=C(C=C1)N2C(=O)C3=CC=CN=C3/N=C2/[C@@H](C)N(CC4=CC=CN=C4)C(=O)CC5=CC=C(F)C(=C5)C(F)(F)F is higher in efficacy: -82% for the first, -9.22% for the second.

First: CC(C)N(CCCNC(=O)Nc1ccc(C(C)(C)C)cc1)C[C@H]1O[C@@H](n2ccc3c(N)ncnc32)[C@H](O)[C@@H]1O
Second: Nc1ncnc2c1nc(Cl)n2[C@@H]1O[C@H](CO)[C@@H](O)[C@H]1O [8-Cl-Ado]
The efficacy of the first is higher: -31.1% for the first, -73.3% for the second.

First: Cc1nc2cc(C(=O)N3CCC4(CC3)CC(=O)c3c(cnn3C(C)C)C4)ccc2[nH]1
Second: O=C1N\N=C(\C[C@@H]2CCN(C2)C(=O)C3CC3)N1C4=CC=C(C=C4)C5=CC=C6OC=CC6=C5
The efficacy of the first is higher: -35.5% for the first, -40.3% for the second.

Going from Cc1ccc(/C=N/NC(=O)c2ccccc2Oc2ccccc2)o1 to CCCCOc1ccc(C(=O)Nc2ccc(F)cc2F)cc1, the efficacy falls from -6.56% to -14.8%.

Going from Cc1ccnc(N[S+](=O)([O-])c2ccc(NC(=O)Nc3ccc([S+](=O)([O-])Nc4nccc(C)n4)cc3)cc2)n1 to O=C(Nc1ccccc1)Nc1ccc(-c2ccc(C(=O)[C@@H]3CCC[C@H]3C(=O)O)cc2)cc1, the efficacy rises from -21.3% to -8.51%.

Going from Cc1ncc(Cl)cc1NCc1ccc(C(=O)NC(CC2CCCC2)C(=O)NC2CC2)s1 (stereo not given) to O=C(NC[C@H](O)CN1CCc2ccccc2C1)c1ccnc(NC2CCC2)c1, the efficacy rises from -78.2% to -5.9%.

Compared with CCc1c(C(=O)NNC(=O)[C@@H](O)c2cc(F)cc(F)c2)ccc(O)c1C, Cc1cc(NC(=O)Nc2ccc(N(C)C)cc2)c2cc(F)cc(F)c2n1 is lower in efficacy: -5.46% for the first, -37.6% for the second.

Compared with CCc1cc(Nc2nccc(-c3c(-c4ccc(OC)c(C(=O)Nc5c(F)cccc5F)c4)nc4ccccn34)n2)c(OC)cc1N1CCC(N2CCN([S+](C)(=O)[O-])CC2)CC1, COC1=C(OC)C=C2C(=CC=NC2=C1)OC3=CC=C(NC(=O)\C4=C\N(C(C)C)C(=O)N(C4=O)C5=CC=C(F)C=C5)C=C3F is higher in efficacy: -21% for the first, -13.9% for the second.

First: CCCCOCCOc1nc(-c2ccc(C(=O)O)c(F)c2)sc1C
Second: COC(=O)N(CC(=O)O)Cc1cccc(OCc2nc(-c3ccc(Cl)cc3)oc2C)c1
The efficacy of the first is lower: -10% for the first, -8.59% for the second.

First: CCOc1cc(/C=C2/C(=O)N(c3ccccc3)N=C2C)cc(Cl)c1OCC(=O)OC
Second: CN1C(=O)C(=C\C2=C1N=C(NC3=CC=CC(=C3)C(O)=O)N=C2)/C4=C(Cl)C=CC=C4Cl
The efficacy of the first is lower: -22.5% for the first, -10.3% for the second.

Going from Cc1cnc(NC(=O)c2cc(Oc3cnc(C(=O)N(C)C)nc3)c3cc(C)oc3c2)cn1 to COc1cccc(Nc2c(C(N)=O)cnc3c(C)cc([S+](=O)([O-])c4cccc(C(=O)N(C)C)c4)cc23)c1, the efficacy falls from -6.07% to -45.1%.

Going from CN(C)c1ccc(Nc2nc(N)n(C(=O)c3c(F)cccc3F)n2)cc1 to O=C(Nc1ccc(F)c(C(F)(F)F)c1)Nc1nnc(-c2ccncc2)s1, the efficacy rises from -100% to -29%.

First: CN1CCN(c2ccc([N+](=O)[O-])c3no[n+]([O-])c23)CC1
Second: COC1(C[S+]([O-])c2ccccc2)CCN(CCc2c[nH]c3ccc(F)cc23)CC1 (stereo not given)
The efficacy of the first is lower: -19.8% for the first, -18.2% for the second.

Going from Cc1c(-c2c(-c3ccc(F)o3)sc3ncnc(O[C@@H](Cc4ccccc4OCc4ccnn4CC(F)(F)F)C(=O)O)c23)ccc(OCCN2CCN(C)CC2)c1Cl to COCc1c(-c2ccc(NC(=O)Nc3cc(C(F)(F)F)ccc3F)c(F)c2)c2c(N)ncnn2c1CN1CCOCC1 [ACTB-1003], the efficacy falls from 9.5% to -76%.

Compared with CNc1nc(C)nc(N[C@H]2CCC[C@@H](C(=O)NCc3ccc(C#N)cc3C(F)(F)F)C2)n1, C[C@H](Nc1nc(N[C@H](C)C(F)(F)F)nc(-c2cccc(Cl)n2)n1)C(F)(F)F [AG-881] is lower in efficacy: -20.5% for the first, -28.1% for the second.

Going from COc1cc(OC)c(NC(=O)Nc2cc(C)on2)cc1Cl to C=CC(=O)N[C@H]1CN(c2nc(Nc3cn(C)nc3OC)c3ncn(C)c3n2)C[C@@H]1F, the efficacy falls from -7.13% to -68%.

Compared with COc1cc[nH]c2ncc(C(=O)C(=O)N3CCN(C(=O)c4ccccc4)C[C@H]3C)c1-2, COc1ccc2cc(OCC3(C(=O)O)CN(C(=O)c4ccc(F)cc4)C3)ccc2c1 is lower in efficacy: -10.7% for the first, -11.6% for the second.

Going from COc1ccc2c(c1)CC[C@@H](CN(C)CC(=O)O)[C@H]2c1ccccc1 to O=C(O)c1ccc(CN2CCC(CN[C@@H]3C[C@H]3c3ccccc3)CC2)cc1, the efficacy rises from -15.5% to -14.1%.

Compared with COC1CCC(C(=O)c2ccc3nc4c(cc3c2)CCCO4)CC1 (stereo not given), CO[C@H]1CC[C@]2(CC1)CC3=C(C=C(C=C3)C4=CN=CC(=C4)C#CC)[C@@]2/5\N=C(C)/C(=N5)N is higher in efficacy: -17.2% for the first, -11.3% for the second.

First: C[C@@H]1CCN(C(=O)N2CCCC2)C[C@@H]1N(C)c1ncnc2[nH]ccc12
Second: C=CC(=O)N1C[C@H](Nc2ncnc3[nH]ccc23)CC[C@@H]1C
The efficacy of the first is higher: -8.82% for the first, -26.7% for the second.

First: Cn1cc(-c2ccc3nnc(C(F)(F)c4ccc5ncccc5c4)n3n2)cn1
Second: Cc1cccc(-c2nn(C(=S)Nc3ccccc3)cc2-c2ccnc3ccccc23)n1 [A-83-01]
The efficacy of the first is lower: -26.2% for the first, -22.3% for the second.

Compared with Cc1cc(C)c2c(c1)[C@@H](N(Cc1cc(C(F)(F)F)cc(C(F)(F)F)c1)c1nnn(C)n1)CCCN2C[C@H]1CC[C@H](C(=O)O)CC1, O=C([C@@H](Cc1cccc(C(F)(F)F)c1)N[S+](=O)([O-])c1cc(F)c2c(c1)CCNC2)N1CCCC1 [(R)-PFI-2] is higher in efficacy: -31.2% for the first, -23.9% for the second.

Going from Clc1cccc(-n2nnnc2NCc2ccccc2Oc2ccccn2)c1Cl to O=C(O)c1ccc(-c2c[nH]c3ncc(-c4ccccc4)cc23)cc1C1CCCC1, the efficacy rises from -32% to -22.5%.

Compared with Clc1ccc2ncc(-c3cccc(NC4CNC4)n3)n2c1, O=C(NC[C@H](O)CN1CCc2ccccc2C1)c1cc(NC2COC2)ncn1 is higher in efficacy: -10.1% for the first, 13% for the second.

Compared with O=C1NC(=O)/C(=C/c2ccc3c(c2)OC(F)(F)O3)S1, O=C1NC(=O)/C(=C/c2ccc(-c3ccc(F)cc3O)o2)S1 is lower in efficacy: -22.5% for the first, -29.8% for the second.

Going from O=C1CC(c2c[nH]c3ccc(F)cc23)C(=O)N1 (stereo not given) to N[C@@H](Cc1c[nH]c2ccc(O)cc12)C(=O)O [5-Hydroxytryptophan], the efficacy falls from -7.69% to -7.82%.

First: NC(=O)c1noc([C@H](CCCC2CCCCC2)CC(=O)NO)n1
Second: N=C1N[C@H]2[C@H](CS[C@H]2CCCCC(=O)O)N1 [2-Iminobiotin]
The efficacy of the first is lower: -86.4% for the first, 16% for the second.

Going from NC(=O)[C@@H](CC1CC1)[C@@H](CCC(F)(F)F)C(=O)N[C@H]2\N=C(C3=CC=CC=C3)/C4=CC=CC(=C4NC2=O)F to N#Cc1ccnc(N2C(=O)CC[C@H]2C(=O)N(c2cncc(F)c2)C(C(=O)NC2CC(F)(F)C2)c2ccccc2Cl)c1 (stereo not given in full) [AG-120], the efficacy falls from -12.2% to -22.2%.

Compared with Nc1nc(N)c2nc(-c3cccc(O)c3)c(-c3cccc(O)c3)nc2n1, Nc1nc(OC(c2ccc(-c3cccc(F)c3)cc2)C(F)(F)F)cc(-c2ccc(C[C@@H](N)C(=O)O)cc2)n1 (stereo not given in full) is lower in efficacy: -7.47% for the first, -26% for the second.

Compared with O=C(NOCCO)c1cc(CN2OCCCC2=O)c(F)c(F)c1Nc1ccc(I)cc1F, CN1CCN(C)C(=O)C1C2=CC=C(N/C3=N/C(=C\N(C)C3=O)C4=C(C)C(=CC=C4)NC(=O)C5=CC6=C(CCCC6)S5)C=C2 (racemic) [GDC-0834 racemate] is higher in efficacy: -60.6% for the first, -21.2% for the second.

Compared with c1cc(-c2sc(-c3ccncc3)c(-c3ccncc3)c2-c2ccncc2)ccn1, O=[N+]([O-])c1ccc(-c2nc(-c3ccc(F)cc3)c(-c3ccncc3)[nH]2)cc1 is lower in efficacy: -13.8% for the first, -23.7% for the second.

Compared with OC[C@H]1O[C@@H](O[C@@H]2[C@@H](CO)OC(O)(CO)[C@H]2O)[C@H](O)[C@@H](O)[C@H]1O (mixture of isomers) [Lactulose], OC[C@H]1OC(O)C[C@@H](O)[C@@H]1O (stereo not given in full) [2-Deoxyglucose] is lower in efficacy: 9% for the first, -11.9% for the second.

Compared with CC[S+](=O)([O-])N1CCC([C@@H](C)n2c(C)c(/C(O)=N/Cc3c(OC)cc(C)nc3O)c3ccccc32)CC1 (racemic) [CPI-169 racemate], O=C(O)CCCc1c[nH]c2ccccc12 [3-indolebutyric acid] is higher in efficacy: -16.2% for the first, 15% for the second.

Going from Nc1ncnc2ccccc12 [4-Quinazolinamine] to Clc1cc2c(NC3CCCC3)nnc(-c3ccncc3)c2cc1Cl [A-196], the efficacy rises from -11.9% to 14.4%.

Going from CC(=O)O[C@@]12CO[C@@H]1C[C@H](O)[C@]3(C)[C@@H]2[C@H](OC(=O)C4=CC=CC=C4)[C@]5(O)C[C@H](O)/C(=C(/[C@@H](O)C3=O)C5(C)C)C [10-Deacetylbaccatin] to CCC(=O)O[C@@]1(CC[C@H]2[C@@H]3CCC/4=C/C(=O)CC[C@]4(C)[C@H]3CC[C@]12C)C(=O)CO [17 alpha-propionate], the efficacy rises from -50.2% to -15.6%.

Compared with CC(C)[C@H]1C(=O)N[C@H](CO)Cc2c[nH]c3cccc(c23)N1C [(-)-Indolactam V], O=C1c2c(O)cc(O)cc2O[C@H](c2ccc(O)c(O)c2)[C@H]1O [(▒)-Taxifolin] is lower in efficacy: 9.83% for the first, 4.75% for the second.

Going from COC1=CC2=C(C=C1OCCCN3CCCC3)\N=C(N)/C24CCC4 [A-366] to CC(=O)NCCCS(=O)(=O)[O-] [ACAMPROSATE CALCIUM], the efficacy rises from 8% to 8.04%.

Source: the supplement of paper PMC10290057
